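A five-concentration, 48-hour dose response in 96-well plates underlies each endpoint, interpolated linearly between surrounding concentrations. Abbreviation: GI50, concentration required for 50% inhibition of growth.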 Active and inactive are the calls of the source. Rule as the data show it: active = GI50 up to about 1.1 µM and inactive = higher.
What was measured:
Test in all cases: inhibition of tumour cell growth, NCI panel, 48 h
786-0 = tested on: 786-0
A549 = tested on: A549
BT-549 = tested on: BT-549
CCRF-CEM = tested on: CCRF-CEM
EKVX = tested on: EKVX
HL-60 = tested on: HL-60
K562 = tested on: K562
MDA-MB-231 = tested on: MDA-MB-231
MDA-MB-435 = tested on: MDA-MB-435
NCI-H226 = tested on: NCI-H226
NCI-H460 = tested on: NCI-H460
OVCAR-3 = tested on: OVCAR-3
PC-3 = tested on: PC-3
RXF 393 = tested on: RXF 393
SF-268 = tested on: SF-268
SNB-19 = tested on: SNB-19
RPMI-8226 = tested on: RPMI-8226
SNB-75 = tested on: SNB-75
NCI-H522 = tested on: NCI-H522
OVCAR-4 = tested on: OVCAR-4

Measured: GI50

COc1cc(N(C)C)c(OC)cc1C=C1C=CC=C1
inactive: 786-0 > 100 µM | A549 > 100 µM | BT-549 > 100 µM | CCRF-CEM 54.1 µM | EKVX > 100 µM | HL-60 36.4 µM | K562 58.5 µM | MDA-MB-231 > 100 µM | MDA-MB-435 43.1 µM | NCI-H226 > 100 µM | NCI-H460 > 100 µM | OVCAR-3 > 100 µM | PC-3 > 100 µM | RXF 393 > 100 µM | SF-268 > 100 µM | SNB-19 > 100 µM

Fc1ccc(/C(=N/Cc2ccccc2)N2CCOCC2)cc1
inactive: 786-0 > 100 µM | BT-549 > 100 µM | CCRF-CEM > 100 µM | EKVX > 100 µM | HL-60 > 100 µM | K562 > 100 µM | MDA-MB-231 > 100 µM | MDA-MB-435 > 100 µM | NCI-H226 > 100 µM | NCI-H460 > 100 µM | OVCAR-3 > 100 µM | PC-3 > 100 µM | RPMI-8226 > 100 µM | RXF 393 > 100 µM | SF-268 > 100 µM | SNB-19 > 100 µM | SNB-75 > 100 µM

N#CCN1c2ccccc2CCC1Cl (centres undefined)
inactive: 786-0 > 10 µM | A549 > 10 µM | BT-549 > 10 µM | CCRF-CEM > 10 µM | EKVX > 10 µM | K562 > 10 µM | MDA-MB-231 > 10 µM | MDA-MB-435 > 10 µM | NCI-H226 > 10 µM | NCI-H460 > 10 µM | NCI-H522 > 10 µM | OVCAR-3 > 10 µM | OVCAR-4 > 10 µM | PC-3 > 10 µM | RPMI-8226 > 10 µM | SF-268 > 10 µM | SNB-19 > 10 µM

O=c1[nH]c2ccc(C(F)(F)F)cc2nc1Cc1ccccc1
inactive: 786-0 35.5 µM | BT-549 34 µM | CCRF-CEM 29.4 µM | EKVX 25.8 µM | HL-60 34.8 µM | K562 38.5 µM | MDA-MB-231 37.8 µM | MDA-MB-435 28.4 µM | NCI-H226 17.7 µM | NCI-H460 27.9 µM | OVCAR-4 33.4 µM | PC-3 26.4 µM | RPMI-8226 39.2 µM | RXF 393 27.2 µM | SF-268 35.2 µM | SNB-19 53 µM | SNB-75 45.9 µM

Cc1cn(CC2=NCC(C)(C)CN2)c(=O)[nH]c1=O
inactive: 786-0 > 100 µM | A549 > 100 µM | BT-549 > 100 µM | CCRF-CEM > 100 µM | EKVX > 100 µM | HL-60 > 100 µM | MDA-MB-231 > 100 µM | NCI-H226 > 100 µM | NCI-H460 > 100 µM | NCI-H522 > 100 µM | PC-3 > 100 µM | RXF 393 > 100 µM | SF-268 > 100 µM | SNB-19 > 100 µM | SNB-75 > 100 µM

COc1cc(S(=O)(=O)Nc2ccc(-c3csc(N4C(=O)C(Cl)C4c4cccc(Oc5ccccc5)c4)n3)cc2)ccc1Cl (centres undefined)
inactive: 786-0 13.7 µM | A549 > 100 µM | BT-549 21.2 µM | CCRF-CEM 3.31 µM | EKVX 20.7 µM | HL-60 20.5 µM | K562 27.9 µM | MDA-MB-435 20.3 µM | NCI-H226 18.8 µM | NCI-H460 > 100 µM | NCI-H522 1.69 µM | OVCAR-3 58.5 µM | OVCAR-4 4.91 µM | PC-3 17.1 µM | RPMI-8226 19.7 µM | RXF 393 3.13 µM | SF-268 15 µM | SNB-19 > 100 µM | SNB-75 22.3 µM

COc1cc(=O)oc(/C=C/C=C/C=C/C(C)=C\C2(C)OC(C)C(C)(O)C2O)c1C (centres undefined)
inactive: 786-0 > 100 µM | A549 > 100 µM | BT-549 > 100 µM | CCRF-CEM > 100 µM | EKVX > 100 µM | HL-60 > 100 µM | K562 > 100 µM | MDA-MB-231 > 100 µM | MDA-MB-435 > 100 µM | NCI-H226 > 100 µM | NCI-H460 > 100 µM | OVCAR-3 > 100 µM | PC-3 > 100 µM | RPMI-8226 > 100 µM | SF-268 > 100 µM | SNB-19 > 100 µM | SNB-75 68.7 µM

O=[N+]([O-])c1ccc(OCc2nnc(CCCCCCCCc3nnc(COc4ccc([N+](=O)[O-])cc4)o3)o2)cc1
inactive: 786-0 > 100 µM | A549 > 100 µM | BT-549 > 100 µM | EKVX > 100 µM | K562 > 100 µM | MDA-MB-231 32.7 µM | MDA-MB-435 > 100 µM | NCI-H226 > 100 µM | NCI-H460 > 100 µM | NCI-H522 > 100 µM | OVCAR-3 > 100 µM | OVCAR-4 > 100 µM | PC-3 > 100 µM | RPMI-8226 > 100 µM | RXF 393 25.1 µM | SF-268 44.5 µM | SNB-19 > 100 µM | SNB-75 > 100 µM

COC(=O)C1=C(CCCCO[Si](C)(C)C(C)(C)C)NC(=O)N2[C@H](CCOCc3ccccc3)CC[C@@H]12
inactive: 786-0 44.7 µM | A549 26.7 µM | BT-549 45.8 µM | EKVX 31.5 µM | K562 87.9 µM | MDA-MB-231 44.9 µM | MDA-MB-435 39.2 µM | NCI-H226 > 100 µM | NCI-H460 38 µM | NCI-H522 15.5 µM | OVCAR-3 29.4 µM | OVCAR-4 > 100 µM | PC-3 26.9 µM | RPMI-8226 49.4 µM | SF-268 > 100 µM | SNB-19 78.3 µM | SNB-75 43.7 µM

CC1(C)CCC[C@]2(C)[C@@H]1CC[C@@]13O[C@@H]1C1=C(CO)C(=O)O[C@]14O[C@@H]4[C@@H]23
inactive: 786-0 15.2 µM | A549 7.98 µM | BT-549 14.7 µM | EKVX 11.9 µM | K562 > 41 µM | MDA-MB-231 15.7 µM | MDA-MB-435 10.4 µM | NCI-H226 19 µM | NCI-H460 14.9 µM | NCI-H522 7.55 µM | OVCAR-3 13.2 µM | OVCAR-4 8.24 µM | PC-3 9.1 µM | RPMI-8226 > 100 µM | RXF 393 8.71 µM | SF-268 15 µM | SNB-19 14.8 µM | SNB-75 15.2 µM

CC1CSc2nc3nc(S)nc-3c(O)n2C1 (centres undefined)
inactive: 786-0 > 100 µM | A549 > 100 µM | BT-549 > 100 µM | CCRF-CEM > 100 µM | EKVX > 100 µM | HL-60 > 100 µM | K562 > 100 µM | MDA-MB-231 > 100 µM | MDA-MB-435 > 100 µM | NCI-H226 > 100 µM | NCI-H460 > 100 µM | OVCAR-3 > 100 µM | OVCAR-4 > 100 µM | RPMI-8226 > 100 µM | RXF 393 > 100 µM | SF-268 > 100 µM | SNB-19 > 100 µM | SNB-75 > 100 µM
